Earlier results in patent US20230226058A1, “METHODS AND COMPOSITIONS FOR TREATING ACUTE KIDNEY INJURY” (CalciMedica, Inc., priority 2020, published 2023).

Tested on: AKI rats

Cc1nnsc1C(=O)Nc1ccc(-n2nc(C(F)(F)F)cc2C(F)(F)F)cc1 [YM58483/BPT2]
infiltration of total CD4+ T-cells, B-cells, and dendritic cells following I/R (AKI rats): attenuated
Total IL17 expressing cells (treated rats relative to vehicle treated rats): reduced
